According to PMC5218480 (PLoS ONE, 2017):

Tested on: MV-4-11 cells
Test: Gene expression microarray analysis (Affymetrix PrimeView) and GSEA
Assay type: cell-based, human
Parameters: RFU PODN (11730768_x_at) / Fold change /veh PODN (11730768_x_at) / RFU LINC00158 (11744669_a_at) / Fold change /veh LINC00158 (11744669_a_at) / RFU DUSP10 (11751237_a_at) / Fold change /veh DUSP10 (11751237_a_at) / RFU ID3 (11757404_x_at) / Fold change /veh ID3 (11757404_x_at) / RFU PLEKHG5 (11737974_s_at) / Fold change /veh PLEKHG5 (11737974_s_at) / RFU LRRC4B (11730491_at) / Fold change /veh LRRC4B (11730491_at) / RFU GIMAP4 (11747438_a_at) / Fold change /veh GIMAP4 (11747438_a_at) / RFU KRT8 (11758183_x_at) / Fold change /veh KRT8 (11758183_x_at) / RFU CNN1 (11734310_a_at) / Fold change /veh CNN1 (11734310_a_at) / RFU VPS37D (11726825_at) / Fold change /veh VPS37D (11726825_at) / RFU C10orf10 (11716522_x_at) / Fold change /veh C10orf10 (11716522_x_at) / RFU KIR2DL2 /// KIR2DL4 /// KIR2DL5A /// KIR2DL5B /// KIR2DS1 /// KIR2DS2 /// KIR2DS3 /// KIR2DS4 /// KIR3DL3 /// KIR3DL3 /// KIR3DS1 (11738374_at) / Fold change /veh KIR2DL2 /// KIR2DL4 /// KIR2DL5A /// KIR2DL5B /// KIR2DS1 /// KIR2DS2 /// KIR2DS3 /// KIR2DS4 /// KIR3DL3 /// KIR3DL3 /// KIR3DS1 (11738374_at) / RFU C1QL1 (11718748_at) / Fold change /veh C1QL1 (11718748_at) / RFU TMPRSS4 (11747572_a_at) / Fold change /veh TMPRSS4 (11747572_a_at) / RFU HAMP (11756126_x_at) / Fold change /veh HAMP (11756126_x_at) / RFU RNFT2 (11725882_a_at) / Fold change /veh RNFT2 (11725882_a_at) / RFU NR4A2 (11747474_a_at) / Fold change /veh NR4A2 (11747474_a_at) / RFU ABCC12 (11746883_a_at) / Fold change /veh ABCC12 (11746883_a_at) / RFU TMEM136 (11760407_x_at) / Fold change /veh TMEM136 (11760407_x_at) / RFU CLDN22 /// WWC2 (11732394_at) / Fold change /veh CLDN22 /// WWC2 (11732394_at) / RFU HLA-DPB1 (11760878_x_at) / Fold change /veh HLA-DPB1 (11760878_x_at) / RFU SPINT1 (11716480_a_at) / Fold change /veh SPINT1 (11716480_a_at) / RFU GAP43 (11754022_s_at) / Fold change /veh GAP43 (11754022_s_at) / RFU A4GNT (11735810_at) / Fold change /veh A4GNT (11735810_at) / RFU PRB3 (11715151_x_at) / Fold change /veh PRB3 (11715151_x_at) / RFU TUBB4B (11761932_at) / Fold change /veh TUBB4B (11761932_at) / RFU CAPN14 (11732068_a_at) / Fold change /veh CAPN14 (11732068_a_at) / RFU TMCC2 (11721928_a_at) / Fold change /veh TMCC2 (11721928_a_at) / RFU IRGQ (11745062_a_at) / Fold change /veh IRGQ (11745062_a_at) / RFU FAM174B (11720279_a_at) / Fold change /veh FAM174B (11720279_a_at) / RFU TMPRSS4 (11748680_a_at) / Fold change /veh TMPRSS4 (11748680_a_at) / RFU FAM212B (11763350_a_at) / Fold change /veh FAM212B (11763350_a_at) / RFU PLEKHG5 (11743358_a_at) / Fold change /veh PLEKHG5 (11743358_a_at) / RFU ZSCAN30 (11745921_a_at) / Fold change /veh ZSCAN30 (11745921_a_at) / RFU CMKLR1 (11741424_a_at) / Fold change /veh CMKLR1 (11741424_a_at) / RFU LOC101060620 /// MAPK8IP1 (11723275_at) / Fold change /veh LOC101060620 /// MAPK8IP1 (11723275_at) / RFU SPTSSB (11747773_x_at) / Fold change /veh SPTSSB (11747773_x_at) / RFU PRSS12 (11739890_at) / Fold change /veh PRSS12 (11739890_at) / RFU BIN1 (11741810_x_at) / Fold change /veh BIN1 (11741810_x_at) / RFU WNT11 (11732464_a_at) / Fold change /veh WNT11 (11732464_a_at) / RFU C10orf10 (11716521_a_at) / Fold change /veh C10orf10 (11716521_a_at) / RFU C5orf56 (11738089_at) / Fold change /veh C5orf56 (11738089_at) / RFU CYB561 (11721691_x_at) / Fold change /veh CYB561 (11721691_x_at) / RFU ANKRD19P (11752326_a_at) / Fold change /veh ANKRD19P (11752326_a_at) / RFU OR2T12 /// OR2T33 /// OR2T8 (11738714_s_at) / Fold change /veh OR2T12 /// OR2T33 /// OR2T8 (11738714_s_at) / RFU VCAN (11748164_a_at) / Fold change /veh VCAN (11748164_a_at) / RFU JSRP1 (11732532_at) / Fold change /veh JSRP1 (11732532_at) / RFU KRTAP10-11 (11738290_x_at) / Fold change /veh KRTAP10-11 (11738290_x_at) / RFU MYO3A (11730013_a_at) / Fold change /veh MYO3A (11730013_a_at) / RFU EBF3 (11725865_a_at) / Fold change /veh EBF3 (11725865_a_at) / RFU CAMK2N1 (11719241_x_at) / Fold change /veh CAMK2N1 (11719241_x_at) / RFU C5orf56 (11738088_a_at) / Fold change /veh C5orf56 (11738088_a_at) / RFU OLFML3 (11715873_a_at) / Fold change /veh OLFML3 (11715873_a_at) / RFU LOC100653217 /// NTM (11731650_a_at) / Fold change /veh LOC100653217 /// NTM (11731650_a_at) / RFU MAPK11 (11762145_a_at) / Fold change /veh MAPK11 (11762145_a_at) / RFU FIZ1 (11724087_x_at) / Fold change /veh FIZ1 (11724087_x_at) / RFU OASL (11726364_x_at) / Fold change /veh OASL (11726364_x_at) / RFU SOX15 (11748057_x_at) / Fold change /veh SOX15 (11748057_x_at) / RFU CD79A (11719716_a_at) / Fold change /veh CD79A (11719716_a_at) / RFU HIST1H1D (11736915_at) / Fold change /veh HIST1H1D (11736915_at) / RFU CASKIN2 (11723855_a_at) / Fold change /veh CASKIN2 (11723855_a_at) / RFU LOC730098 (11760151_x_at) / Fold change /veh LOC730098 (11760151_x_at) / RFU OR4N2 (11742367_at) / Fold change /veh OR4N2 (11742367_at) / RFU PRRT2 (11749266_a_at) / Fold change /veh PRRT2 (11749266_a_at) / RFU SNX32 (11753110_a_at) / Fold change /veh SNX32 (11753110_a_at) / RFU CDHR5 (11726645_a_at) / Fold change /veh CDHR5 (11726645_a_at) / RFU RCAN1 (11760418_a_at) / Fold change /veh RCAN1 (11760418_a_at) / RFU FAM167A (11723789_a_at) / Fold change /veh FAM167A (11723789_a_at) / RFU FAM26E (11764081_at) / Fold change /veh FAM26E (11764081_at) / RFU ISYNA1 (11749810_s_at) / Fold change /veh ISYNA1 (11749810_s_at) / RFU ACY1 (11761880_at) / Fold change /veh ACY1 (11761880_at) / RFU 11764098_at / Fold change /veh 11764098_at / RFU SAMD14 (11745864_x_at) / Fold change /veh SAMD14 (11745864_x_at) / RFU NPB (11741838_a_at) / Fold change /veh NPB (11741838_a_at) / RFU TMPRSS6 (11731388_a_at) / Fold change /veh TMPRSS6 (11731388_a_at) / RFU KRTAP10-2 (11738614_at) / Fold change /veh KRTAP10-2 (11738614_at) / RFU ARHGAP8 /// PRR5-ARHGAP8 (11727945_x_at) / Fold change /veh ARHGAP8 /// PRR5-ARHGAP8 (11727945_x_at) / RFU KRTAP5-7 /// NADSYN1 (11734609_at) / Fold change /veh KRTAP5-7 /// NADSYN1 (11734609_at) / RFU RASL12 (11751679_a_at) / Fold change /veh RASL12 (11751679_a_at) / RFU CDKN2B (11736163_a_at) / Fold change /veh CDKN2B (11736163_a_at) / RFU PRF1 (11729649_at) / Fold change /veh PRF1 (11729649_at) / RFU, ZNF638 /// ZNF638-IT1 / Fold change vs veh, ZNF638 /// ZNF638-IT1 / RFU, PANK3 / Fold change vs veh, PANK3 / RFU, SH3YL1 / Fold change vs veh, SH3YL1 / RFU, ZEB2 / Fold change vs veh, ZEB2 / RFU, NRIP1 / Fold change vs veh, NRIP1 / RFU, PTTG1IP / Fold change vs veh, PTTG1IP / RFU, CAPN2 / Fold change vs veh, CAPN2 / RFU, MED14 / Fold change vs veh, MED14 / RFU, SNORA58 / Fold change vs veh, SNORA58 / RFU, C1orf63 / Fold change vs veh, C1orf63 / RFU, LRRFIP1 / Fold change vs veh, LRRFIP1 / RFU, NDUFAF7 / Fold change vs veh, NDUFAF7 / RFU, SLC12A2 / Fold change vs veh, SLC12A2 / RFU, IBTK / Fold change vs veh, IBTK / RFU, ESF1 / Fold change vs veh, ESF1 / Fold change vs veh, TMEM50B / RFU, TAOK1 / Fold change vs veh, TAOK1 / RFU, ACBD3 / Fold change vs veh, ACBD3 / RFU, TMA16 / Fold change vs veh, TMA16 / RFU, RWDD3 / Fold change vs veh, RWDD3 / RFU, BCAT1 / Fold change vs veh, BCAT1 / RFU, EDEM3 / Fold change vs veh, EDEM3 / RFU, TMEM33 / Fold change vs veh, TMEM33 / RFU, WDR75 / Fold change vs veh, WDR75 / RFU, AHCTF1 / Fold change vs veh, AHCTF1 / RFU, TFRC / Fold change vs veh, TFRC / RFU, ZDHHC17 / Fold change vs veh, ZDHHC17 / RFU, NOM1 / Fold change vs veh, NOM1 / RFU, ARL8B / Fold change vs veh, ARL8B / RFU, ZBTB11 / Fold change vs veh, ZBTB11 / RFU, TAMM41 / Fold change vs veh, TAMM41 / RFU, KIAA1704 /// LOC100996395 / Fold change vs veh, KIAA1704 /// LOC100996395 / RFU, ING1 / Fold change vs veh, ING1 / RFU, TRMT61B / Fold change vs veh, TRMT61B / RFU, FUBP3 / Fold change vs veh, FUBP3 / RFU, TP53 / Fold change vs veh, TP53 / RFU, TNKS2 / Fold change vs veh, TNKS2 / RFU, ZFP14 / Fold change vs veh, ZFP14 / RFU, ACTR2 / Fold change vs veh, ACTR2 / RFU, PPP3R1 / Fold change vs veh, PPP3R1 / RFU, PIK3R1 / Fold change vs veh, PIK3R1 / RFU, HNRNPA1 / Fold change vs veh, HNRNPA1 / RFU, RNF170 / Fold change vs veh, RNF170 / RFU, ZNF28 / Fold change vs veh, ZNF28 / RFU, RNGTT / Fold change vs veh, RNGTT / RFU, OGT / Fold change vs veh, OGT / RFU, BRD1 / Fold change vs veh, BRD1 / RFU, MARS / Fold change vs veh, MARS / RFU, ZNF655 / Fold change vs veh, ZNF655 / RFU, FAHD1 / Fold change vs veh, FAHD1 / RFU, BDP1 / Fold change vs veh, BDP1 / RFU, LRRCC1 / Fold change vs veh, LRRCC1 / RFU, ARID1A / Fold change vs veh, ARID1A / RFU, ZNF146 / Fold change vs veh, ZNF146 / RFU, ZNF330 / Fold change vs veh, ZNF330 / RFU, GPN3 / Fold change vs veh, GPN3 / RFU, C9orf123 / Fold change vs veh, C9orf123 / RFU, N4BP2L2 / Fold change vs veh, N4BP2L2 / RFU, ARFIP1 / Fold change vs veh, ARFIP1 / RFU, FAM179B / Fold change vs veh, FAM179B / RFU, BCL10 / Fold change vs veh, BCL10 / RFU, UHRF1BP1L / Fold change vs veh, UHRF1BP1L / RFU, BET1 / Fold change vs veh, BET1 / RFU, CNOT2 / Fold change vs veh, CNOT2 / RFU, ZNF268 / Fold change vs veh, ZNF268 / Fold change vs veh, ZNF507 / RFU, DGCR2 / Fold change vs veh, DGCR2 / RFU, WDSUB1 / Fold change vs veh, WDSUB1 / Fold change vs veh, HSP90B1 /// MIR3652 / RFU, ADSS / Fold change vs veh, ADSS / RFU, GK / Fold change vs veh, GK / RFU, ZNF148 / Fold change vs veh, ZNF148 / RFU, TAF9 / Fold change vs veh, TAF9 / RFU, SLC1A5 / Fold change vs veh, SLC1A5 / RFU, SLMO2 / Fold change vs veh, SLMO2 / RFU, ABCC4 / Fold change vs veh, ABCC4 / RFU, LOC101060439 /// RAP1B / Fold change vs veh, LOC101060439 /// RAP1B / RFU, RFX7 / Fold change vs veh, RFX7 / RFU, GTPBP10 / Fold change vs veh, GTPBP10 / RFU, CNEP1R1 / Fold change vs veh, CNEP1R1 / RFU, BIVM-ERCC5 /// ERCC5 / Fold change vs veh, BIVM-ERCC5 /// ERCC5 / RFU, ILF3 / Fold change vs veh, ILF3 / RFU 11762660_at / Fold change /veh 11762660_at / RFU VCAN (11757783_s_at) / Fold change /veh VCAN (11757783_s_at) / RFU DDX43 (11728927_at) / Fold change /veh DDX43 (11728927_at) / RFU KRT8 (11758188_x_at) / Fold change /veh KRT8 (11758188_x_at) / RFU NKD1 (11759106_at) / Fold change /veh NKD1 (11759106_at) / RFU SRD5A1 (11742802_a_at) / Fold change /veh SRD5A1 (11742802_a_at) / RFU TPSAB1 /// TPSB2 (11721975_s_at) / Fold change /veh TPSAB1 /// TPSB2 (11721975_s_at) / RFU GSTM3 (11746129_a_at) / Fold change /veh GSTM3 (11746129_a_at) / RFU IL23R (11737362_x_at) / Fold change /veh IL23R (11737362_x_at) / RFU TMEM51 (11727254_a_at) / Fold change /veh TMEM51 (11727254_a_at) / RFU PIWIL2 (11732686_x_at) / Fold change /veh PIWIL2 (11732686_x_at) / RFU ORM1 (11744905_x_at) / Fold change /veh ORM1 (11744905_x_at) / RFU CCDC152 (11743942_at) / Fold change /veh CCDC152 (11743942_at) / RFU ECM1 (11717891_a_at) / Fold change /veh ECM1 (11717891_a_at) / RFU IL23R (11748794_a_at) / Fold change /veh IL23R (11748794_a_at) / RFU TNFAIP8L3 (11732012_x_at) / Fold change /veh TNFAIP8L3 (11732012_x_at) / RFU MBOAT4 (11741988_at) / Fold change /veh MBOAT4 (11741988_at) / RFU 11764193_at / Fold change /veh 11764193_at / RFU TMEM53 (11763286_at) / Fold change /veh TMEM53 (11763286_at) / RFU MAGEB2 (11727129_at) / Fold change /veh MAGEB2 (11727129_at) / RFU TMEM200A (11744735_a_at) / Fold change /veh TMEM200A (11744735_a_at) / RFU CCDC152 (11751479_a_at) / Fold change /veh CCDC152 (11751479_a_at) / RFU FAM211A (11726209_a_at) / Fold change /veh FAM211A (11726209_a_at) / RFU RGS16 (11746705_a_at) / Fold change /veh RGS16 (11746705_a_at) / RFU VCAN (11755009_s_at) / Fold change /veh VCAN (11755009_s_at) / RFU RHOB (11743442_s_at) / Fold change /veh RHOB (11743442_s_at) / RFU RGS16 (11720943_a_at) / Fold change /veh RGS16 (11720943_a_at) / RFU RGS16 (11720944_at) / Fold change /veh RGS16 (11720944_at) / RFU, VPS4B / Fold change vs veh, VPS4B / RFU, CREB1 / Fold change vs veh, CREB1 / RFU, DNAJC13 / Fold change vs veh, DNAJC13 / RFU, GNAQ / Fold change vs veh, GNAQ / RFU, CDK5R1 / Fold change vs veh, CDK5R1 / RFU, ZRANB3 / Fold change vs veh, ZRANB3 / RFU, CUL4A / Fold change vs veh, CUL4A / RFU, CCNY / Fold change vs veh, CCNY / RFU, UFL1 / Fold change vs veh, UFL1 / RFU, COG3 / Fold change vs veh, COG3 / RFU, DIAPH2 / Fold change vs veh, DIAPH2 / RFU, SKA2 / Fold change vs veh, SKA2 / RFU, AFF3 / Fold change vs veh, AFF3 / RFU, LMF1 / Fold change vs veh, LMF1 / RFU, IPO11 / Fold change vs veh, IPO11 / RFU, DFFB / Fold change vs veh, DFFB / RFU, FOXP1 / Fold change vs veh, FOXP1 / RFU, CARD8 / Fold change vs veh, CARD8 / RFU, STRN3 / Fold change vs veh, STRN3 / RFU, ADK / Fold change vs veh, ADK / RFU, RASSF2 / Fold change vs veh, RASSF2 / RFU, WIPF1 / Fold change vs veh, WIPF1 / RFU, LARP1B / Fold change vs veh, LARP1B / RFU, RASA1 / Fold change vs veh, RASA1 / RFU, RB1 / Fold change vs veh, RB1 / RFU, PPFIA1 / Fold change vs veh, PPFIA1 / RFU, MAT2A / Fold change vs veh, MAT2A / RFU, CCT5 / Fold change vs veh, CCT5 / RFU, WDR92 / Fold change vs veh, WDR92 / RFU, CUX1 / Fold change vs veh, CUX1 / RFU, TTC7A / Fold change vs veh, TTC7A / RFU, TMEM135 / Fold change vs veh, TMEM135 / RFU, DEPTOR / Fold change vs veh, DEPTOR / RFU, CPM / Fold change vs veh, CPM / RFU, DNAJB6 / Fold change vs veh, DNAJB6 / RFU, CACNA2D3 / Fold change vs veh, CACNA2D3 / RFU, DTX4 / Fold change vs veh, DTX4 / RFU, TFCP2 / Fold change vs veh, TFCP2 / RFU, GMCL1 /// GMCL1P1 / Fold change vs veh, GMCL1 /// GMCL1P1 / RFU, AEBP2 / Fold change vs veh, AEBP2 / RFU, SNHG1 /// SNORD22 /// SNORD25 /// SNORD26 /// SNORD27 /// SNORD28 /// SNORD29 /// SNORD31 / Fold change vs veh, SNHG1 /// SNORD22 /// SNORD25 /// SNORD26 /// SNORD27 /// SNORD28 /// SNORD29 /// SNORD31 / Fold change (Aza/veh), C12orf56 (ProbeSet 11735607_a_at) / Fold change (ACY-1035/veh), C12orf56 (ProbeSet 11735607_a_at) / Fold change (Aza/veh), FGFR1OP (ProbeSet 11751329_s_at) / Fold change (ACY-1035/veh), FGFR1OP (ProbeSet 11751329_s_at) / Fold change (Aza/veh), VPS36 (ProbeSet 11739960_a_at) / Fold change (ACY-1035/veh), VPS36 (ProbeSet 11739960_a_at) / RFU SYPL1 (11715823_x_at) / Fold change /veh SYPL1 (11715823_x_at) / RFU IGFBP7 (11715501_s_at) / Fold change /veh IGFBP7 (11715501_s_at) / RFU REEP3 (11722064_at) / Fold change /veh REEP3 (11722064_at) / RFU IGLL1 (11728026_x_at) / Fold change /veh IGLL1 (11728026_x_at): dose or concentration left out as unconfirmed
Settings: MV-4-11 cells, 48 hours

SMILES: Nc1ccc(-c2cccs2)cc1NC(=O)c1ccc2c(c1)cc(C1CC1)n2CCN1CCOCC1 [ACY-1035]
- RFU C10orf10 (11716521_a_at): 34.07 RFU
